According to patent US20190203409A1, “ANTIBACTERIAL REGENERATED CELLULOSIC FIBERS AND PROCESS OF PREPARATION THEREOF” (GRASIM INDUSTRIES LIMITED, priority 2016, published 2019):

Tested on: S. Aureus
Assay: AATCC 147-2013 antibacterial test
Type: cell-based
Conditions: 0.5% concentration to weight of cellulose
Protocol: An antibacterial agent is used in Standard VSF or Modal or Lyocell manufacturing process to improve antibacterial performance of fiber. A small amount of chemical DDAC (i.e. 0.05-1% on weight of cellulose fiber) is infused by the way of: pouring or spraying or soaking or coating or padding or dipping and the like on the fiber during fiber manufacturing process and then fibers were dried and finally packed into the bales. The resultant fiber was then evaluated for antibacterial performance in external biological laboratory as per standard test methods.

SMILES: Oc1cc(Cl)ccc1Oc1ccc(Cl)cc1Cl [Triclosan]
- antibacterial activity (in words): did not demonstrate any antibacterial activity
